Where “and” joins values, the source holds several entries; their conditions need not be identical. Equal values may be shown once.

For series [1], the system named is free living nematodes in soil. Conditions: 24 hour exposure; cited from earlier work.
The subject of series [2] is citrus nematode. Conditions: 0.5 hour exposure, same concentration; cited from earlier work.
The subject of series [3] is Root-Knot larvae (J2). The experiment in a line: Effect of nematicides (Oxamyl, Thiodicarb) on Root-Knot larvae (J2) in vitro. More on the design: species or system M. incognita. Conditions: for Root-Knot larvae (J2) Alive / Root-Knot larvae (J2) Dead: room temperature, one replicate per line; for Root-Knot larvae (J2) Alive / Root-Knot larvae (J2) Dead / Root-Knot larvae (J2) Alive, non-mobile: 2 days; for Root-Knot larvae (J2) Alive, non-mobile: alive larvae given as non-mobile. As to the method: M. incognita eggs collected from tomato cultures by NaOC1 extraction (Hussey and Barker, 1973). Briefly, six to twelve week old infected tomato roots were cut into 1-2 segment. Root segments were shacked vigorously in 200 ml of a 0.5% Na O Cl solution for 4 min. Then, the Na O Cl solution was passed quickly through a 200-mesh (75-μm), nested over a 500-mesh sieve to collect freed eggs. The a 500-mesh sieve with eggs was quickly placed under a stream of cold water to remove residual Na O cl and rinsed several times. About 50 ml queous suspension of eggs was collected and number of eggs per unit volume will be counted. The egg suspension was allowed to sit at room temperature for 4 days. The hatching juveniles were collected and used in the subsequent experiments.
Determine the efficient concentration of nematicides (Oxamyl and Thidiocarb) that kill or suppress Root-Knot Larvae.
M. incognita eggs collected from tomato cultures by NaOC1 extraction (Hussey & Barker, Plant Disease Reporter. 57:1025-1028 (1973)). Egg suspension was incubated at room temperature until larvae were hatched (4-5 days). The juveniles (J2) were counted and evaluated for activity/mobility for the duration of the study. Four different concentrations of both nematicides (Oxamyl and Thiodicarb) were used to assess their efficacy in killing the nematodes. These were untreated control, 200 ug, 1 mg, 2 mg, and 10 mg. Three replicates of the each concentration were mixed with J2 suspensions and incubated at room temperature for 2 days.
We studied the efficiency of Oxamyl; 200 ug/ml and 100 ug/ml in suppression of J2. […] We used 100 ug of Oxamyl in subsequent studies with liposomes.

The test system of series [4] is root-knot nematodes. The experiment in a line: Nematicidal activity of Oxamyl-liposome formulation on root-knot nematodes. Conditions: where oxamyl was added (oxamyl-liposome test, FIG. 1). The format is in vivo, M. incognita. As to the method:
Liposomes having an aqueous core and phospholipid bilayers were prepared using the thin-film dehydration-rehydration method obtaining, multilamilar vesicles (MLVs) and small unilamellar vesicles (SUVs) (Bangham et al., J. Mol. Biol. 13:238-252 (1965); Gosangari & Watkin, Pharm Dev Technol. 17:383-8 (2012)). Using thin-film hydration method, briefly, required amounts of lipids [1,2-Dipalmitoyl-sn-glycero-3-phosphocholine (DPPC) liposomes and 1, 2-distearoyl-snglycero- 3-phosphocholine (DSPC)] were dissolved in chloroform, and a thin film will be formed on the inner side of the round bottom flask, by evaporating the solvent under vacuum using a rotavapor. The lipid film formed was stored overnight in vacuum desiccator to eliminate traces of chloroform. The film was then hydrated at 58° C., above the Tc of DSPC, using 10 mL of phosphate-buffered saline (PBS, 20 mM […], 150 mM NaCl, pH 7.0) containing different concentration of Oxamyl. […] The unencapsulated oxamyl was then separated using Sephadex G-50 macrospin columns and the encapsulation efficiency was calculated spectrophotometrically at 280 nm. […]
M. incognita eggs collected from tomato cultures by NaOC1 extraction (Hussey & Barker, Plant Disease Reporter. 57:1025-1028 (1973)). […] The juveniles (J2) were counted and evaluated for activity/mobility for the duration of the study. […]

Series [5] in a line: Abamectin or liposomal abamectin applied to soil prior to planting: gall formation, root necrosis, root length. It counts as in vivo. The procedure:
Abamectin at 5μg or 1μg was directly applied to soil prior to planting. Alternatively abamectin was loaded into liposomes at either 5μg or 1 μg and applied to soil prior to planting. Gall formation was detected. […] Therefore, liposomal abamectin formulations enhance root length as compared to non-liposomal abamectin formulations.

The test system of series [6] is nematode. Conditions: comparison figure; cited from earlier work.

As for `BrCCBr` [EDB, ethylene dibromide], in series [1], the population killed is 75%. The survival result in series [2] was “did not survive”.

In the case of `CS/C(C)=N\OC(=O)N(C)SN(C)C(=O)O/N=C(\C)SC` [Larvin (Thiodicarb), Thiodicarb], the “Root-Knot larvae (J2) Alive” value in series [3] (200 ug) was 76 and 86 and 89; in series [3] (1 mg), 75 and 82 and 63; in series [3] (2 mg), 70 and 85 and 65. For the same molecule, the “Root-Knot larvae (J2) Dead” value in series [3] (200 ug) was 23 and 14 and 11; in series [3] (1 mg), 25 and 18 and 37; in series [3] (2 mg), 30 and 15 and 35; in series [3] (10 mg), 30 (2×) and 20. The “Root-Knot larvae (J2) Alive, non-mobile” value in series [3] (10 mg) was 70 non-mobile and 80 non-mobile. Besides, the “concentration required to kill Root-Knot (J2)” value in series [3] (compared with Oxamyl, reason for elimination) is “required higher concentration to kill Root-Knot (J2)”.

`CNC(=O)O/N=C(\SC)C(=O)N(C)C` [Oxamyl (Vydate), Methyl N′N′-dimethyl-N-[(methylcarbamoyl)oxy]-1-thiooxamimidate]: the “Root-Knot larvae (J2) Alive, non-mobile” value in series [3] (200 ug) was 60 non-mobile and 58 non-mobile and 50 non-mobile. The “Root-Knot larvae (J2) Dead” value is 40 and 42 and 50 in series [3] (200 ug); 100 in series [3] (1 mg); 100 in series [3] (2 mg); 100 in series [3] (10 mg). In addition, the “Root-Knot larvae (J2) Alive” value in series [3] (1 mg), in series [3] (2 mg) and in series [3] (10 mg) was 0 in each case. The mortality at 100 µg/mL in series [3] (Meloidogyne incognita, 100 ug/ml) is 100%. The molecule also had a mortality at 200 µg/mL in series [3] (Meloidogyne incognita, 200 ug/ml) of 100%. Further, in series [4], the state of larvae result is “dead or paralyzed”.

As to abamectin [non-liposomal abamectin], in series [5] (1 μg applied to soil prior to planting, FIG. 3), the gall formation result is on record as “most gall formulation”. For the same molecule, the root necrosis entry in series [5] (5 μg applied to soil prior to planting, FIG. 4) is on record as “most root necrosis”. In addition, the “amount of abamectin needed to treat nematodes when not encapsulated by liposomes” value in series [6] is on record as “about 2982 mg/acre”.

The values above are taken from patent US20160270400A1, “Liposome-Attractant Formulations” (priority 2013, published 2016).
